Patent US20250262186A1 (SANOFI, priority 2022, published 2025)
Counter-ions that a name gives are not always drawn.

Biological target: T1, ERα (Homo sapiens, UniProt P03372)
T1 construct: made using a breast cancer cell ERα in cell western assay; host or cells: MCF7
T1 sequence (P03372 1-595): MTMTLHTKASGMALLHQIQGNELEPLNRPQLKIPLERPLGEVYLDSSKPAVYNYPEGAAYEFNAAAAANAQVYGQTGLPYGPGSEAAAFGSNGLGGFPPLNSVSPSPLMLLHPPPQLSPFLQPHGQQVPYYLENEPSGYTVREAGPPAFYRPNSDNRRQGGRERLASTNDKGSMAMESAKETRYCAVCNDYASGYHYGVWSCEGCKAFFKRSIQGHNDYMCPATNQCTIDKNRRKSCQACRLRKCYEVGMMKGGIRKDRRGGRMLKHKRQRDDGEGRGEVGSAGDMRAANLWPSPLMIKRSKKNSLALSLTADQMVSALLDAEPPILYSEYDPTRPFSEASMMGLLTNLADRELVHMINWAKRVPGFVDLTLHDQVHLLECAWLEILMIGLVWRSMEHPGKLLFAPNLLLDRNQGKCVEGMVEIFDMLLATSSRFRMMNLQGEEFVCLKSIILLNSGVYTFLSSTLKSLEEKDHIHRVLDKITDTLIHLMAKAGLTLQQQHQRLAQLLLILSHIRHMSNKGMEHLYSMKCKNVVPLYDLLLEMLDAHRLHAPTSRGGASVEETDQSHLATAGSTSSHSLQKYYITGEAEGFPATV
Test: Estrogen receptor degradation activity: breast cancer cell ERα in cell western assay in MCF7 cells
Format: cell-based
Settings: 0.3 μM, 4 hours, relative to fulvestrant 0.1 μM positive control
Protocol: Said test involves measuring the in vitro degradation activity of the compounds of the Table 1a.
The measurements of the degradation activities were made using a breast cancer cell ERα in cell western assay as described hereunder.
MCF7 cells (ATCC) were seeded in 384 wells microplate (collagen coated) at a concentration of 10000 cells/30 μL per well in red phenol free MEM alpha medium (invitrogen) containing 5% charcoal dextran striped FBS. The following day, 9 points serial 1:5 dilution of each compound was added to the cells in 2.5 μL at final concentrations ranging from 0.3-0.0000018 μM (in table 2), or 0.1 μM for fulvestrant (using as positive control). At 4 hours post compound addition the cells were fixed by adding 25 μL of formalin (final concentration 5% formalin containing 0.1% triton) for 10 minutes at room temperature and then washed twice with PBS. Then, 50 μL of LI-COR blocking buffer containing 0.1% Triton was added to plate for 30 minutes at room temperature. LI-COR blocking buffer was removed and cells were incubated overnight at cold room with 50 μL anti-ER rabbit monoclonal antibody (Thermo scientific MA1-39540) diluted at 1:1000 in LI-COR blocking buffer containing 0.1% tween-20. Wells which were treated with blocking buffer but no antibody were used as background control. Wells were washed twice with PBS (0.1% tween-20) and incubated at 37° C. for 60 minutes in LI-COR (0.1% tween-20) containing goat anti-rabbit antibody Alexa 488 (1:1000) and Syto-64 a DNA dye (2 μM final concentration). Cells were then washed 3 times in PBS and scanned in ACUMEN explorer (TTP-Labtech). Integrated intensities in the green fluorescence and red fluorescence were measured to determine the levels of ERα and DNA respectively.
The degradation activity with respect to estrogen receptors in this test is given by the concentration which degrades 50% of the estrogen receptor (or IC50) in nM.
The % of ERα levels decrease were determined as follows: % inhibition=100*(1−(sample−fulvestrant: DMSO−fulvestrant)).

Row | Compound | % Degradation At 0.3 μM [%]
1 | Cl.O=C(O)c1ccc2c(c1)CCCC(c1ccc(Cl)cc1Cl)=C2c1cccc(O[C@@H]2CCN(CCCF)C2)c1F [Compound 21, (R)-8-(2,4-dichlorophenyl)-9-(2-fluoro-3-((1-(3-fluoropropyl)pyrrolidin-3-yl)oxy)phenyl)-6,7-dihydro-5H-benzo[7]annulene-3-carboxylic acid, hydrochloride] | 85
2 | Cc1ccc(O[C@@H]2CCN(CCCF)C2)cc1C1=C(c2ccccc2Cl)CCCc2cc(C(=O)O)ccc21 [Compound 23, (R)-8-(2-chlorophenyl)-9-(5-((1-(3-fluoropropyl)pyrrolidin-3-yl)oxy)-2-methylphenyl)-6,7-dihydro-5H-benzo[7]annulene-3-carboxylic acid] | 84
3 | Cc1ccc(O[C@@H]2CCN(CCCF)C2)cc1C1=C(c2ccc(Cl)cc2Cl)CCCc2cc(C(=O)O)ccc21 [Compound 24] | 61
4 | Cl.O=C(O)c1ccc2c(c1)CCCC(c1ccccc1)=C2c1cc(O[C@@H]2CCN(CCCF)C2)ccc1F [Compound 25, (R)-9-(2-fluoro-5-((1-(3-fluoropropyl)pyrrolidin-3-yl)oxy)phenyl)-8-phenyl-6,7-dihydro-5H-benzo[7]annulene-3-carboxylic acid, hydrochloride] | 77
5 | O=C(O)c1ccc2c(c1)CCCC(c1ccccc1Cl)=C2c1cc(O[C@@H]2CCN(CCCF)C2)ccc1F [Compound 26, (R)-8-(2-chlorophenyl)-9-(2-fluoro-5-((1-(3-fluoropropyl)pyrrolidin-3-yl)oxy)phenyl)-6,7-dihydro-5H-benzo[7]annulene-3-carboxylic acid, hydrochloride] | 90
6 | Cl.O=C(O)c1ccc2c(c1)CCCC(c1ccc(Cl)cc1Cl)=C2c1cc(O[C@@H]2CCN(CCCF)C2)ccc1F [Compound 27, (R)-8-(2,4-dichlorophenyl)-9-(2-fluoro-5-((1-(3-fluoropropyl)pyrrolidin-3-yl)oxy)phenyl)-6,7-dihydro-5H-benzo[7]annulene-3-carboxylic acid hydrochloride] | 89
7 | Cl.O=C(O)c1ccc2c(c1)CCCC(c1ccccc1Cl)=C2c1cccc(OC2CN(CCCF)C2)c1 [Compound 29, 8-(2-chlorophenyl)-9-(3-((1-(3-fluoropropyl)azetidin-3-yl)oxy)phenyl)-6,7-dihydro-5H-benzo[7]annulene-3-carboxylic acid hydrochloride] | 57
8 | Cl.O=C(O)c1ccc2c(c1)CCCC(c1ccc(Cl)cc1Cl)=C2c1cccc(OC2CN(CCCF)C2)c1 [Compound 30, 8-(2,4-dichlorophenyl)-9-(3-((1-(3-fluoropropyl)azetidin-3-yl)oxy)phenyl)-6,7-dihydro-5H-benzo[7]annulene-3-carboxylic acid hydrochloride] | 55
9 | O=C(O)c1ccc2c(c1)CCCC(c1ccc(Cl)cc1Cl)=C2c1cccc(CC2CN(CCCF)C2)c1 [Compound 31, 8-(2,4-dichlorophenyl)-9-(3-((1-(3-fluoropropyl)azetidin-3-yl)methyl)phenyl)-6,7-dihydro-5H-benzo[7]annulene-3-carboxylic acid] | 58

Next, values leading:

Row | % Degradation At 0.3 μM [%] | Compound
10 | 70 | O=C(O)c1ccc2c(c1)CCCC(c1ccc(Cl)cc1Cl)=C2c1cccc(NC2CN(CCCF)C2)c1 [Compound 32, 8-(2,4-dichlorophenyl)-9-(3-((1-(3-fluoropropyl)azetidin-3-yl)amino)phenyl)-6,7-dihydro-5H-benzo[7]annulene-3-carboxylic acid]
11 | 79 | Cl.O=C(O)c1ccc2c(c1)CCCC(c1ccc(Cl)cc1Cl)=C2c1cccc(N[C@@H]2CCN(CCCF)C2)c1 [Compound 33, (R)-8-(2,4-dichlorophenyl)-9-(3-((1-(3-fluoropropyl)pyrrolidin-3-yl)amino)phenyl)-6,7-dihydro-5H-benzo[7]annulene-3-carboxylic acid hydrochloride]
12 | 65 | Cl.O=C(O)c1ccc2c(c1)OCCC(c1ccc(Cl)cc1Cl)=C2c1cccc(O[C@@H]2CCN(CCCF)C2)c1 [Compound 35, (R)-4-(2,4-dichlorophenyl)-5-(3-((1-(3-fluoropropyl)pyrrolidin-3-yl)oxy)phenyl)-2,3-dihydrobenzo[b]oxepine-8-carboxylic acid hydrochloride]
13 | 66 | FCCCN1CC[C@@H](Oc2cccc(C3=C(c4ccc(Cl)cc4Cl)CCCc4ccccc43)c2)C1 [Compound 38, (R)-3-(3-(8-(2,4-dichlorophenyl)-6,7-dihydro-5H-benzo[7]annulen-9-yl)phenoxy)-1-(3-fluoropropyl)pyrrolidine]
14 | 78 | FCCCN1CC[C@@H](Oc2cccc(C3=C(c4ccccc4Cl)CCCc4ccccc43)c2)C1 [Compound 39, (R)-3-(3-(8-(2-chlorophenyl)-6,7-dihydro-5H-benzo[7]annulen-9-yl)phenoxy)-1-(3-fluoropropyl)pyrrolidine]
15 | 88 | Cl.O=C(O)c1ccc2c(c1)CCC(c1ccc(Cl)cc1Cl)=C2c1cccc(O[C@@H]2CCN(CCCF)C2)c1 [Compound 40, (R)-6-(2,4-dichlorophenyl)-5-(3-((1-(3-fluoropropyl)pyrrolidin-3-yl)oxy)phenyl)-7,8-dihydronaphthalene-2-carboxylic acid hydrochloride]
16 | 75 | Oc1ccc2c(c1)SCCC(c1ccc(Cl)cc1Cl)=C2c1cccc(O[C@@H]2CCN(CCCF)C2)c1 [Compound 41, (R)-4-(2,4-dichlorophenyl)-5-(3-((1-(3-fluoropropyl)pyrrolidin-3-yl)oxy)phenyl)-2,3-dihydrobenzo[b]thiepin-8-ol]
